Measured values from the supplement of paper PMC13380429.

What was measured:
Settings in all cases: 72 h
HepG2 [1] = assay: cell viability relative to DMSO; higher = less toxic
Calu-3 [2] = assay: as above
U2OS [3] = assay: as above
Vero E6 [4] = assay: as above
Caco-2 [5] = assay: as above
HepG2 [6] = assay: relative viability EC50 (midpoint between 100% and the lowest measured viability); higher = less toxic
Calu-3 [7] = assay: as above
U2OS [8] = assay: as above
Vero E6 [9] = assay: as above
Caco-2 [10] = assay: as above
HepG2 [11] = assay: drug sensitivity score (DSS) for viability; higher = more toxic; extreme values may be limits of the assay
Calu-3 [12] = assay: as above
U2OS [13] = assay: as above
Vero E6 [14] = assay: as above
Caco-2 [15] = assay: as above

Structure (SMILES) | cell viability (HepG2 [1]; 1 nM) [%] | cell viability (HepG2 [1]; 10 nM) [%] | cell viability (HepG2 [1]; 100 nM) [%] | cell viability (HepG2 [1]; 1000 nM) [%] | cell viability (HepG2 [1]; 10000 nM) [%] | cell viability (Calu-3 [2]; 1 nM) [%] | cell viability (Calu-3 [2]; 10 nM) [%] | cell viability (Calu-3 [2]; 100 nM) [%] | cell viability (Calu-3 [2]; 1000 nM) [%] | cell viability (Calu-3 [2]; 10000 nM) [%] | cell viability (U2OS [3]; 1 nM) [%] | cell viability (U2OS [3]; 10 nM) [%] | cell viability (U2OS [3]; 100 nM) [%] | cell viability (U2OS [3]; 1000 nM) [%] | cell viability (U2OS [3]; 10000 nM) [%] | cell viability (Vero E6 [4]; 1 nM) [%] | cell viability (Vero E6 [4]; 10 nM) [%] | cell viability (Vero E6 [4]; 100 nM) [%] | cell viability (Vero E6 [4]; 1000 nM) [%] | cell viability (Vero E6 [4]; 10000 nM) [%] | cell viability (Caco-2 [5]; 1 nM) [%] | cell viability (Caco-2 [5]; 10 nM) [%] | cell viability (Caco-2 [5]; 100 nM) [%] | cell viability (Caco-2 [5]; 1000 nM) [%] | cell viability (Caco-2 [5]; 10000 nM) [%] | relative viability EC50 (HepG2 [6]) [µM] | relative viability EC50 (Calu-3 [7]) [µM] | relative viability EC50 (U2OS [8]) [µM] | relative viability EC50 (Vero E6 [9]) [µM] | relative viability EC50 (Caco-2 [10]) [µM] | drug sensitivity score (HepG2 [11]) | drug sensitivity score (Calu-3 [12]) | drug sensitivity score (U2OS [13]) | drug sensitivity score (Vero E6 [14]) | drug sensitivity score (Caco-2 [15])
NC[C@H]1O[C@H](O[C@H]2[C@H](O)[C@@H](O[C@H]3O[C@H](CO)[C@@H](O)[C@H](N)[C@H]3O)[C@H](N)C[C@@H]2N)[C@H](N)[C@@H](O)[C@@H]1O [bekanamycin] | 94.7 | 97.8 | 103 | 94.4 | 99.1 | 111 | 93 | 97.8 | 111 | 97.3 | 95.7 | 103 | 97.5 | 101 | 97.7 | 98.1 | 102 | 99.2 | 97.4 | 108 | 103 | 101 | 95.9 | 110 | 100 | > 10 | > 10 | > 10 | > 10 | > 10 | 0 | 0 | 0 | 0 | 0
O=C(c1ccc(F)cc1)N1CCC[C@H](c2nc(-c3ccc(F)cc3)no2)C1 | 93.7 | 99.4 | 93 | 96 | 91.1 | 90 | 100 | 85.3 | 98.2 | 75.5 | 94 | 101 | 99.9 | 98.8 | 91.7 | 98.3 | 93.5 | 94.7 | 93.9 | 95.5 | 101 | 94.3 | 91.8 | 99.7 | 87.9 | > 10 | > 10 | > 10 | > 10 | > 10 | 0 | 1.2 | 0 | 0 | 0
CN1C(=O)CN=C(c2ccccc2)c2cc(Cl)ccc21 [diazepam] | 94.8 | 105 | 101 | 100 | 101 | 110 | 92.4 | 96.6 | 98 | 110 | 107 | 102 | 107 | 99.6 | 103 | 97.8 | 100 | 101 | 98.6 | 86.7 | 104 | 101 | 85.6 | 87.6 | 96 | > 10 | > 10 | > 10 | > 10 | > 10 | 0 | 0 | 0 | 0.2 | 2.2
CC[N+](C)(CC)CCOC(=O)C1c2ccccc2Oc2ccccc21 [methantheline] | 102 | 88.7 | 97.9 | 79.8 | 97.5 | 99.9 | 96.2 | 103 | 106 | 88.9 | 99.1 | 100 | 100 | 104 | 97.8 | 95.3 | 97 | 94.4 | 93.2 | 93.8 | 91.6 | 108 | 89.1 | 99 | 96.3 | > 10 | > 10 | > 10 | > 10 | > 10 | 0 | 0 | 0 | 0 | 0
CCC(CC)n1ccc2c(C(=O)NCc3c(C)cc(C)[nH]c3=O)cc(C#N)cc21 [EI1] | 90.7 | 92.3 | 101 | 93.7 | 97.6 | 94.2 | 96.6 | 101 | 109 | 102 | 98.7 | 99.4 | 93.8 | 96.1 | 101 | 105 | 100 | 107 | 97.5 | 104 | 105 | 95.1 | 97.2 | 95.4 | 93.6 | > 10 | > 10 | > 10 | > 10 | > 10 | 0 | 0 | 0 | 0 | 0
OCCc1ccc(OCCn2ccnc2)cc1 [MR-948] | 89.2 | 104 | 96.7 | 106 | 106 | 96.4 | 99 | 97.6 | 105 | 104 | 99.4 | 99.9 | 98.6 | 96 | 96.8 | 90 | 98.6 | 94.8 | 95 | 107 | 94.9 | 93.1 | 86.3 | 108 | 99.8 | > 10 | > 10 | > 10 | > 10 | > 10 | 0 | 0 | 0 | 0 | 0
Cc1cc(-c2nncc3c(C(C)(C)C)c(OCc4ncnn4C)nn23)no1 [MRK-016] | 105 | 94.9 | 104 | 98.1 | 96.8 | 104 | 111 | 108 | 93.9 | 100 | 101 | 104 | 99.1 | 101 | 102 | 100 | 102 | 98.5 | 97.6 | 94.5 | 97.7 | 104 | 96.6 | 89 | 97.2 | > 10 | > 10 | > 10 | > 10 | > 10 | 0 | 0 | 0 | 0 | 0
CCCCCCCCCCC[C@@H](C[C@@H]1OC(=O)[C@H]1CCCCCC)OC(=O)[C@H](CC(C)C)NC=O [orlistat] | 104 | 106 | 108 | 96.7 | 100 | 103 | 97.4 | 110 | 102 | 103 | 96 | 97.2 | 92.6 | 105 | 105 | 96.2 | 98.2 | 89.9 | 82.8 | 102 | 111 | 98.5 | 99.9 | 99 | 94.9 | > 10 | > 10 | > 10 | > 10 | > 10 | 0 | 0 | 0 | 0 | 0
CC(=O)OCC(CCn1cnc2cnc(N)nc21)COC(C)=O [famciclovir] | 103 | 98.4 | 103 | 96.8 | 100 | 104 | 99.4 | 91.1 | 106 | 93.9 | 100 | 104 | 95 | 102 | 95.5 | 99.7 | 102 | 98.7 | 96.9 | 100 | 91.3 | 101 | 105 | 87.4 | 82.8 | > 10 | > 10 | > 10 | > 10 | > 10 | 0 | 0 | 0 | 0 | 1.4
CN(C)CCCN1c2ccccc2Sc2ccccc21 [promazine] | 102 | 89.6 | 102 | 93.5 | 87.6 | 93.7 | 102 | 95.2 | 95.6 | 101 | 98.7 | 102 | 96.4 | 96.3 | 99.5 | 102 | 100 | 95.1 | 97.2 | 96 | 95.5 | 98.3 | 93.6 | 96.1 | 102 | > 10 | > 10 | > 10 | > 10 | > 10 | 0.1 | 0 | 0 | 0 | 0
C[C@H](O)[C@H](O)[C@H]1CNc2nc(N)[nH]c(=O)c2N1 [sapropterin] | 98.6 | 87.3 | 94.2 | 102 | 86.1 | 94.9 | 97 | 98.6 | 106 | 99.4 | 99.9 | 95.4 | 101 | 91.3 | 99.9 | 97.1 | 102 | 99.6 | 96.9 | 92.6 | 109 | 114 | 90.3 | 107 | 106 | > 10 | > 10 | > 10 | > 10 | > 10 | 0.1 | 0 | 0 | 0 | 0
C[C@H](NCc1ccc(OCc2ccccc2F)cc1)C(N)=O [priralfinamide] | 98 | 87.3 | 98.5 | 97.4 | 93.6 | 103 | 95.2 | 105 | 91.5 | 99.5 | 99.2 | 102 | 96.5 | 99.6 | 97.6 | 99.5 | 95.3 | 99.4 | 92.3 | 91.7 | 97.8 | 104 | 91.6 | 95 | 91.2 | > 10 | > 10 | > 10 | > 10 | > 10 | 0 | 0 | 0 | 0 | 0
